Measurements taken from patent US20230321237A1, “REGULATORY T CELL EPITOPES” (EPIVAX, INC., priority 2020, published 2023).

Assays:
[1] = target: T1, Recombinant human cathepsin B (Homo sapiens, UniProt P07858); test: Cathepsin B cleavage of the Val-Cit site; format: biochemical; conditions: 0.01 ug rhCathepsin B, 10 uM peptide substrate, RT 15 min, mass spec
T1 construct: purchased R&D Systems 953-CY
Description: Recombinant human cathepsin B (catalog 953-CY of R&D Systems™) can be used to evaluate the cleavage of the Val-Cit site engineered into the Tregitope peptide. The activity assay protocol can be used according to the R&D Systems™'s recommendations with final assay conditions of 0.01 ug rhCathepsin B and 10 uM of peptide substrate. After incubation of Cathepsin B with purified peptides (at RT for 15 min). The peptide can be evaluated by mass spec using the Qstar XL Pro™.

[2] = test system: CD4 T cells in donor PBMC stimulated with Tetanus Toxoid; format: cell-based, human
[3] = test system: Class II HLA alleles HLA-DRB1*0101, *0301, *0401, *0701, *0801, *0901, *1101, *1301, *1501; test: HLA Binding Assay with soluble HLA molecules (competition with labeled control peptide); parameters: species or system human; conditions: FIG. 18
Description: HLA Binding Assay. Binding activity was analyzed at EpiVax (Providence, Rhode Island). The binding assay used (Steere A C et al., (2006), J Exp Med, […]:961-73) yielded an indirect measure of peptide-MHC affinity. Soluble HLA molecules were loaded onto a 96-well plate with the unlabeled experimental Tregitopes and labeled control peptide. Once the binding mixture reached steady equilibrium (at 24 hours), the HLA-Tregitope complexes were captured on an ELISA plate coated with anti-human DR antibody and detected with a Europium-linked probe for the label (PerkinElmer, Waltham, MA). Time-resolved fluorescence measuring bound labeled control peptide is assessed by a SpectraMax® M5 unit (Spectramax, Radnor, PA). Binding of experimental Tregitopes was expressed as the percent inhibition of the labeled control peptide ([…]). The percent inhibition values for each experimental Tregitope (across a range of molar concentrations) were used to calculate the concentration at which it inhibits 50% of the labeled control […] specific binding, i.e. the Tregitope's IC50.
Selected experimental Tregitopes were solvated in DMSO. The diluted Tregitopes were then mixed with binding reagents in aqueous buffering solution, yielding a range of final concentrations from 100,000 nM down to 100 nM. […]

[4] = test system: CD4+ effector memory T cells in PBMC; format: cell-based, human
[5] = CRIM-negative infantile Pompe disease patients; cited from earlier work
[6] = test system: PBMCs from lupus patients; conditions: cited from earlier work
[7] = test system: soluble HLA class II molecules (human DR molecules); conditions: cited from earlier work

In the case of PEG12, the “cleavage of the Val-Cit site by Cathepsin B” value [1] is reported as “successful cleavage”.
In the case of “ILTIHFTGHSFIYGK (listed as Homo sapiens) [SEQ ID NO: 74, known Tregitope used as positive control in the TTBSA, reference compound]”, the “inhibition of CD4 T cell proliferation (CFSE low)” value [2] is reported as “successfully inhibit” and the “proliferation of regulatory T cells” value [2] is reported as “increased proliferation”.
For “AHGVFLLNSNAMDVVLQ (listed as Homo sapiens) [SEQ ID NO: 5]”, the “ratio of T regulatory cells to T effector cells” value [2] was “good ratios”.
For “KDILTLRLDVMMETE (listed as Homo sapiens) [SEQ ID NO: 4]”, the “initial HLA binding results compared with prediction” value [3] was “high false negative” and the “effect on CD4 proliferation” value [2] was “little effect”.
In the case of AAALVSLATAALLGHI [SEQ ID NO: 3], the “effect on CD4 proliferation” value [2] is reported as “little effect”.
With “Tetanus Toxoid: proliferation stimulant (Astarte Biologics) in the TTBSA [reference compound]” the “activated (CD25 high) CD4 T cells also proliferating (CFSE low)” value [4] was “approximately 90%” and the “CD4 proliferation caused by the stimulant” value [2] was “caused CD4 proliferation”.
With “PRELSGSSPVLEETH (listed as Homo sapiens) [SEQ ID NO: 7]” the Tregitope suppressive activity [2] was “demonstrated Tregitope suppressive activity”, the “effect on CD4 proliferation” value [2] was “little effect” and the “inhibition of CD4 T cell proliferation (CFSE low)” value [2] was “little effect”.
In the case of “rhGAA: recombinant human acid alpha-glucosidase for enzyme replacement therapy”, the “antibody titers reactive to administered rhGAA” value [5] is listed as “high antibody titers”.
In the case of RIHMVYSKRSGKPRGYAFIEY [peptide 131-151], the “randomly selected lupus patients whose PBMCs contain T cells that proliferate in response to the peptide” value [6] is given as 40% and the “binding to human DR molecules” value [7] is given as “binds to a large panel of human DR molecules”.
In the case of “SHRLLAVCALVSLATAA (listed as Homo sapiens) [SEQ ID NO: 1]”, the “suppression of activated effector CD4+ T cells (CD4+/CD25hi/FoxP3int) reacting to Tetanus Toxoid” value [4] is reported as “Suppressed” and the “ratio of T regulatory cells to T effector cells” value [2] is reported as “best ratios”.
